In patent US20230144436A1, “MUSCLE TARGETING COMPLEXES AND USES THEREOF FOR TREATING MYOTONIC DYSTROPHY” (Dyne Therapeutics, Inc., priority 2020, published 2023):

Tested on: DMPK
Assay: DMPK knockdown by transfected antisense oligonucleotides in DM1 C15 myotubes at 0.5 nM and 50 nM
Format: cell-based
Settings: 72 hours; for Normalized DMPK Remaining: relative to vehicle control = 1.00
How it was run: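 Seven-day-differentiated DM1 C15 myotubes transfected (Lipofectamine MessengerMax) with each oligonucleotide at 0.5 nM or 50 nM final, biological triplicates. After 72 h, DMPK mRNA quantified by qPCR, expressed relative to vehicle-only transfection set to 1.00.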

Substance | Percent DMPK Reduction (0.5 nM oligonucleotide) [%] | Normalized DMPK Remaining (0.5 nM oligonucleotide) | Percent DMPK Reduction (50 nM oligonucleotide) [%] | Normalized DMPK Remaining (50 nM oligonucleotide)
427 (UUGUUCAUGAUCUUCAUGGC; chemistry not given here) [compound 427] | 14.13 | 0.86 | 45.23 | 0.55
428 (UUGAUGUCCCUGUGCACGU; chemistry not given here) [compound 428] | 6.92 | 0.93 | 43.07 | 0.57
429 (GCGGUCCAGCAGGAUGUUGU; chemistry not given here) [compound 429] | 38.84 | 0.61 | 83.64 | 0.16
430 (GUCUAUGGCCAUGACAAUCU; chemistry not given here) [compound 430] | -11.00 | 1.11 | 73.11 | 0.27
431 (GGAGCAGGGAAAGCGCCUCC; chemistry not given here) [compound 431] | 21.46 | 0.79 | 88.35 | 0.12
432 (UGCCUCGCGUAGUUGACUGG; chemistry not given here) [compound 432] | 11.03 | 0.89 | 88.02 | 0.12
433 (GCGGAUGGCCUCCAUCUCCC; chemistry not given here) [compound 433] | 21.25 | 0.79 | 71.77 | 0.28
434 (UUUCAUAGGCGAAUACACCC; chemistry not given here) [compound 434] | 5.56 | 0.94 | 53.28 | 0.47
435 (GCCUGUCAGCGAGUCGGAGG; chemistry not given here) [compound 435] | 10.81 | 0.89 | 75.67 | 0.24
436 (CCACUUCAGCUGUUUCAUCC; chemistry not given here) [compound 436] | 22.40 | 0.78 | 64.20 | 0.36
437 (CAUCCGCUCCUGCAACUGCC; chemistry not given here) [compound 437] | 21.04 | 0.79 | 76.81 | 0.23
438 (UCUAGGGUUCAGGGAGCGCG; chemistry not given here) [compound 438] | 21.81 | 0.78 | 83.22 | 0.17
439 (CACCAACACGUCCCUCUCCU; chemistry not given here) [compound 439] | 37.51 | 0.62 | 81.57 | 0.18
440 (CAGGAGCAGGGAAAGCGCCU; chemistry not given here) [compound 440] | 12.48 | 0.88 | 51.82 | 0.48
441 (CAAUCUCCGCCAGGUAGAAG; chemistry not given here) [compound 441] | 15.95 | 0.84 | 49.25 | 0.51
442 (AUGUUGUCGGGUUUGAUGUC; chemistry not given here) [compound 442] | 16.93 | 0.83 | 52.83 | 0.47
443 (CCAUCCGCUCCUGCAACUGC; chemistry not given here) [compound 443] | 19.53 | 0.80 | 71.62 | 0.28
444 (GCGUCACCUCGGCCUCAGCC; chemistry not given here) [compound 444] | 20.02 | 0.80 | 81.27 | 0.19
445 (GAGGGCCUUUUAUUCGCGAG; chemistry not given here) [compound 445] | 8.23 | 0.92 | 62.21 | 0.38
446 (AGCGGCAGAGAGAGGUGCUC; chemistry not given here) [compound 446] | 19.75 | 0.80 | 90.71 | 0.09
447 (CAUCCAAAACGUGGAUUGGG; chemistry not given here) [compound 447] | 19.12 | 0.81 | 77.98 | 0.22
448 (UUGGGCAGAUGGAGGGCCUU; chemistry not given here) [compound 448] | 19.08 | 0.81 | 78.39 | 0.22
449 (CCUCUGCCUCGCGUAGUUGA; chemistry not given here) [compound 449] | 7.39 | 0.93 | 85.33 | 0.15
450 (ACAGAACAACGGCGAACAGG; chemistry not given here) [compound 450] | 2.07 | 0.98 | 55.96 | 0.44
451 (CAGGAUGUUGUCGGGUUUGA; chemistry not given here) [compound 451] | 17.17 | 0.83 | 79.31 | 0.21
452 (CGGCCUCAGCCUCUGCCGCA; chemistry not given here) [compound 452] | 6.71 | 0.93 | 60.06 | 0.40
453 (CAGCAGGAUGUUGUCGGGUU; chemistry not given here) [compound 453] | 34.18 | 0.66 | 84.54 | 0.15
454 (GCAGAGAGAGGUGCUCCUUG; chemistry not given here) [compound 454] | 17.29 | 0.83 | 85.95 | 0.14
455 (UCCAGUUCCAUGGGUGUGGG; chemistry not given here) [compound 455] | 15.66 | 0.84 | 78.48 | 0.22
